Paper PMC5462101 (Future medicinal chemistry, 2015)
Marks after values point to notes of the source that are not given here.

Columns and labels:
[1] = tested on: carrageenin-induced rat paw edema; assay: Inhibition of carrageenin-induced rat paw edema; format: in vivo, Fisher 344 rats; conditions: rat, 0.01 mmol/kg intraperitoneally, 1 h, mean of two experiments
Experimental: The incipient pattern of this edema is characterized by the effects of histamine and 5-hydroxytryptamine. After 1 h, reduction of edema in the rat paw achieved by the pteridine 18f was appreciably greater than the reduction induced by the reference compound indomethacin, a nonselective COX-inhibitor and commonly used nonsteroidal anti-inflammatory drug. Thus, 18f and some related pteridines offer significant protection against reactive oxygen species produced in a model of colitis, probably on account of their properties as antioxidants and radical scavengers.
(§1) Fisher 344 rats (150-200 g) were housed in wire-mesh cages, given standard laboratory chow and tap water ad libitum and acclimatized for one week before experiments. Rats were randomly assigned to experimental groups. All in vivo experiments conform to the law for the protection of experimental animals (Republic of Greece) and are registered at the Veterinary Administration of the Republic of Greece in accordance with recognized guidelines on animal experimentation including Directive 2010/63/EU.
Inhibition of carrageenin-induced edema
Edema was induced in the right hind paw of Fisher 344 rats (150-200 g) by intradermal injection of aqueous carrageenin (0.1 mL, 2%). Pregnant females were excluded from the study, but both sexes were used. Each group comprised 6-15 rats which were bred and housed under standard conditions and received a diet of commercial food pellets and water ad libitum during maintenance but were entirely fasted during the experiment period. Each compound (0.01 mmol/kg body weight) was suspended in water to which had been added a few drops of Tween 80 and then the mixture was ground in a mortar prior to being administered intraperitoneally and simultaneously with the carrageenin injection. Rats were euthanized 1 h after injection, and the difference between the weight of the injected and non-injected paws was calculated for each animal. The change in paw weight was compared with that in control animals (treated with water) and the inhibition of the edema was expressed as a percentage (Table 4). […]

[2] = Inhibition of linoleic acid peroxidation (AAPH); conditions: linoleic acid peroxidation initiated by AAPH, 37 °C, pH 7.4
Description: Azo compounds that generate free radicals through spontaneous thermal decomposition are useful for in vitro studies of free radical production. The water-soluble AAPH has been extensively used as a clean and controllable source of thermally produced alkylperoxyl free radicals. […] Evidently, the presence of 6,7-dimethyl groups on the pteridine ring greatly enhances protection against lipid peroxidation; the nature of the alkyl group and ring size on the 2-substituent has some, but much less, effect. […] The role of lipophilicity (as assessed from calculated clogP values; Table 1) is not clear, but substituent bulk plays a significant role.
Inhibition of linoleic acid peroxidation
Production of conjugated diene hydroperoxide by oxidation of linoleic acid in an aqueous dispersion was monitored at 234 nm. 2,2’-Azobis(2-amidinopropane) dihydrochloride (AAPH) was used as a free radical initiator. This assay was used to follow oxidative changes and to determine the inhibition of the peroxidation of sodium linoleate by each tested compound. A dispersion of sodium linoleate (16 mM, 10 μL) was added to the UV cuvette containing phosphate buffer (0.05 M, 0.93 mL) at pH 7.4 and kept in a thermostat at 37 °C. The oxidation reaction was initiated at 37 °C under air by the addition of AAPH solution (40 mM, 50 μL). Oxidation was carried out in the presence of aliquots (10 μL) of the tested compound. In the assay without antioxidant, lipid oxidation was measured in the presence of DMSO (10 μL). The rate of oxidation at 37 °C was monitored by recording the increase in absorption at 234 nm caused by conjugated diene hydroperoxide formation (Table 2).
(§2) IC50 determinations. OriginPro 8 was used to determine IC50 values from the sigmoidal line fitted to a graph of log[concentration] against the average percentage inhibition from two independent experiments, with at least 6 different concentrations. The SEM is the calculated standard error in the IC50 value of the fitted line.

[3] = Competition with DMSO for hydroxyl radicals; conditions: compound at 100 µM, Fe3+/ascorbic acid, DMSO 33 mM
Experimental: Competition of the novel pteridine derivatives with dimethyl sulfoxide for hydroxyl radicals was measured. […] The majority of the derivatives were excellent scavengers of hydroxyl radicals with activity higher than the reference compound 6-hydroxy-2,5,7,8-tetramethylchroman-2-carboxylic acid (Trolox).
Competition of pteridine derivatives with DMSO for hydroxyl radicals
Hydroxyl radicals generated by the Fe^3+/ascorbic acid system were detected by determination of formaldehyde produced from the oxidation of DMSO, according to the procedure of Nash. The reaction mixture comprised ethylenediaminetetracetic acid (EDTA) (0.1 mM), Fe^3+ (167 μM), DMSO (33 mM) in phosphate buffer (50 mM, pH 7.4), ascorbic acid (10 mM) and the compound to be tested at 100 µM. After incubation at 37 °C for 30 min the mixture was quenched with aqueous trichloroacetic acid (17% w/v) (Table 2) and the percentage competition of the tested compounds with DMSO for hydroxyl radicals was determined (Table 2).

soybean lipoxygenase = target: T1, soybean lipoxygenase (Glycine max, UniProt P08170); assay: Inhibition of soybean lipoxygenase; format: biochemical
T1 construct: purchased Sigma
T1 sequence (P08170 1-839): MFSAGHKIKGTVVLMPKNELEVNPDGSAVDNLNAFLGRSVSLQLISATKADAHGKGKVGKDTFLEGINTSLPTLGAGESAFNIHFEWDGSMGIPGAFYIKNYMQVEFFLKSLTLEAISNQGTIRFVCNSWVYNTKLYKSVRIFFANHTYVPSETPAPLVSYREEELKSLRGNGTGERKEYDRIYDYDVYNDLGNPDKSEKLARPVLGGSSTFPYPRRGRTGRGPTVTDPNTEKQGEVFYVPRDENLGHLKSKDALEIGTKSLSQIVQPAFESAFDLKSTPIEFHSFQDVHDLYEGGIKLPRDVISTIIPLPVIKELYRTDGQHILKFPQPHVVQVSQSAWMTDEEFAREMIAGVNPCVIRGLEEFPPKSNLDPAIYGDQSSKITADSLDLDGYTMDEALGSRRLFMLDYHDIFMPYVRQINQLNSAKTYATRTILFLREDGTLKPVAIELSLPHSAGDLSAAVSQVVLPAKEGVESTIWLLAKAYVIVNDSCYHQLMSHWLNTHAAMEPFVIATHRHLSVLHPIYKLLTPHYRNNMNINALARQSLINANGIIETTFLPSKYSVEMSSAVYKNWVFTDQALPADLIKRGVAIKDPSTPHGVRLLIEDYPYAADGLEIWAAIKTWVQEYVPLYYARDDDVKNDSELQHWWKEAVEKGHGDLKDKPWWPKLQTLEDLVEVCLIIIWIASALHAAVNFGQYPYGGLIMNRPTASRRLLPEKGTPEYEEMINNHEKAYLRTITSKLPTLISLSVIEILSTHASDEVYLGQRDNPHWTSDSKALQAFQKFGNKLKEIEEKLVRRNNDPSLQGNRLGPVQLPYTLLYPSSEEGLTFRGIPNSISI
Experimental: The substituted pteridines prepared were assayed for inhibition of soybean lipoxygenase (Table 1) (Supplementary Information). Many studies have used readily obtainable soybean lipoxygenase, which is a homologue of mammalian lipoxygenase and well examined. The availability of soybean LOX and its well-characterized crystal structure led to its use in this study.
Determination of soybean lipoxygenase inhibition
A solution in DMSO of each compound to be tested was incubated at room temperature with sodium linoleate (0.1 mM) and a solution of soybean lipoxygenase (EC 1.13.11.12) (1:9 x 10^4 w/v in saline, 0.2 mL, Sigma). The conversion of sodium linoleate to 13-hydroperoxylinoleic acid was monitored by observation at 234 nm and compared with the value of appropriate standard inhibitor (Table 1).
as §2

[4] = Reducing ability in DPPH assay; conditions: compound 100 μM
Experimental: Previous work has shown that pterins, their dihydro- and their tetrahydro-derivatives can each be antioxidants or pro-oxidants, depending on the particular conditions. In the present study, several assays were used to assess in vitro antioxidant activity in order to obtain representative information; each method involves the generation of a different radical.
Determination of reducing activity using 1,1-diphenyl-2-picrylhydrazyl radical (DPPH)
To a solution of DPPH in absolute ethanol was added an equal volume of the compound to be tested dissolved in DMSO (20 µL). From a stock solution (10 mM) was prepared a final solution of 100 µM for evaluation of the compounds. The absorbance at 517 nm was recorded after 20 and 60 min at room temperature (Table 2).

rat model of colitis = assay: Acetic acid-induced colitis in the rat; format: in vivo, Fisher 344 rats; conditions: 0.01 mmol/kg intrarectally, 4% acetic acid; for Change in body weight (%): assessed after 48 h; for Score (levels 0–5): colonic damage score, 48 h
Experimental: LOX has also been associated with inflammation and ulcerative colitis. In the present study, a model for colitis involving intracolonic administration of aqueous 4% acetic acid in the rat was used, leading to acute inflammatory reaction. Treated rats presented partial to diffuse petechial bleeding, single erosion and limited ulceration indicating an overall healing effect of the compounds. Substituted pteridines presenting a satisfactory combination of activities 5a, 18a, 18d and 18f were tested using this in vivo model characterized by diffuse exfoliated mucosa as well as multiple and extended erosion and ulcers of the colon (Table 3). No mortality was encountered.
as §1
Induction of colitis
Rats were anesthetized using pentobarbital (50 mg/kg ip) prior to administration with 1 mL of either vehicle (0.9% w/v saline) or the compound under study at doses 0.01mmol/kg intrarectally via a polyethylene cannula (fitted to a 1 mL syringe) with the tip inserted approximately 8 cm into the anus. Following 30 min pretreatment, 1 ml of 4% acetic acid was introduced into the colon intrarectally and, after exposure for 60 s, the excess fluid was withdrawn. The luminal content was then expelled by instillation of air (10 mL), the ligature was removed and the abdomen was sutured. Both groups of rats were allowed to recover with food and water and the resulting injury was assessed after 48 h. The experiment was conducted using two groups, each containing 3 animals.
Assessment of colonic damage. Rats were weighed, inspected for the presence of diarrhea and sacrificed using diethyl ether. The colons were excised and opened longitudinally, rinsed with cold saline, pinned out and observed under a dissecting microscope. Colonic damage was scored using the system of MacPherson and Pfeiffer: 0 – normal appearance, 1- hyperaemia, 2 – patchy petechial bleeding, 3 – diffuse petechial bleeding, 4 – partial exfoliated mucosa or single erosion or ulceration, 5 – diffuse exfoliated mucosa or multiple erosions or ulceration. The presence or absence of adhesions between the colon and the surrounding tissues was recorded. Scoring of the colonic damage (Table 4) was carried out by an observer unaware of the treatment.

Row | SMILES | Reduction of rat paw edema after 1 h (%) [1] | IC50 [2] | Hydroxyl radicals scavenged (%) [3] | IC50 (soybean lipoxygenase; sodium linoleate 0.1 mM, read-out: Lipoxygenase inhibitory activity (IC50)) | RA (%) 100μM 20 min [4] | RA (%) 100μM 60 min [4] | Change in body weight (%) (rat model of colitis) | Score (levels 0–5) (rat model of colitis) | inhibition at 100 µM (soybean lipoxygenase; compound at 100 µM, read-out: Lipoxygenase inhibitory activity (% at 100 µM))
1 | COc1ccc2c(c1)c(CC(=O)O)c(C)n2C(=O)c1ccc(Cl)cc1 [Indomethacin, indomethacin, reference compound] | 25 ^† % | – | – | – | – | – | – | – | –
2 | CN1CCN(c2nc(NCc3cccnc3)c3nccnc3n2)CC1 [Compound 18d] | – | 32.5 ± 1 µM | 95% | 100 ± 10 nM | 10% | 11% | -7% | One rat exhibited patchy petechial bleeding (2), and another diffuse petechial bleeding (3); the rest presented partial exfoliated mucosa or single erosion or ulcer | –
3 | CN1CCN(c2nc(NCc3ccccc3)c3nccnc3n2)CC1 [Compound 18a] | – | 22 ± 0.8 µM | 91% | – | 2% | 7% | -4.2% | One rat exhibited hyperemia (1); the rest presented petechial bleeding (patchy to diffuse) (2–3) | 31.5 ± 0.2%
